Experimental data published in ChEMBL document CHEMBL1128282 (J Med Chem, 1995).
Active and inactive are the calls of the source. No cut-off for these calls is given here.

Tests used:
Xenopus laevis [1] = organism: Xenopus laevis; experiment: Pigment aggregation response in Xenopus laevis Melanophores; Antagonist; assay type: functional; details: filed as antagonist
Melatonin receptor [2] = biological target: T1, Melatonin receptor (Gallus gallus, UniProt P49288+P51050+P49285); experiment: Binding affinity in chicken brain membranes by using [2-125I]melatonin in a competition radioligand binding assay; assay type: cell membranes, Membrane
Xenopus laevis [3] = organism: Xenopus laevis; experiment: Pigment aggregation response in Xenopus laevis Melanophores at 10e-6 M of concentration; Agonist; assay type: functional; details: filed as agonist
Xenopus laevis [4] = organism: Xenopus laevis; experiment: Pigment aggregation response in Xenopus laevis Melanophores at 10e-5 M of concentration; Antagonist; assay type: functional; details: filed as antagonist
Melatonin receptor [5] = biological target: T1, Melatonin receptor; experiment: Binding affinity in chicken brain membranes by using [2-125I]melatonin in a competition radioligand binding assay.; assay type: cell membranes, Membrane
Xenopus laevis [6] = organism: Xenopus laevis; experiment: Pigment aggregation response in Xenopus laevis Melanophores at 10e-8 M of concentration; Agonist response; assay type: functional; details: filed as agonist
Xenopus laevis [7] = organism: Xenopus laevis; experiment: Pigment aggregation response in Xenopus laevis Melanophores at 10e-5 M of concentration; No Agonist/antagonist response; assay type: functional
Xenopus laevis [8] = organism: Xenopus laevis; experiment: Pigment aggregation response in Xenopus laevis Melanophores at 10e-7 M of concentration; Agonist; assay type: functional; details: filed as agonist
Xenopus laevis [9] = organism: Xenopus laevis; experiment: Pigment aggregation response in Xenopus laevis Melanophores at 10e-5 M of concentration; No agonist response; assay type: functional
Xenopus laevis [10] = organism: Xenopus laevis; experiment: Pigment aggregation response in Xenopus laevis Melanophores at 10e-5 M of concentration; Agonist; assay type: functional; details: filed as agonist
Xenopus laevis [11] = organism: Xenopus laevis; experiment: Pigment aggregation response in Xenopus laevis Melanophores at 10e-5 M of concentration; No Agonist response; assay type: functional

Row | SMILES | Ki (Melatonin receptor [2]) [nM] | Response (Xenopus laevis [3]) | further results
1 | O=C(NCCc1c(-c2ccccc2)[nH]c2ccccc12)C1CCC1 | 565 |  | Response (Xenopus laevis [1]): Antagonist
2 | O=C(NCCc1c(-c2ccccc2)[nH]c2ccccc12)C(F)(F)F | 148 | Agonist | 
3 | COc1ccc2[nH]c(-c3ccccc3)c(CCNC(=O)C34C[C@H]5C[C@@H](C3)C[C@@H](C4)C5)c2c1 | 1100 | Agonist | 
4 | COc1ccc2[nH]c(-c3ccccc3)c(CCNC(=O)C3CC3)c2c1 | 0.3047 |  | 
5 | O=C(CBr)NCCc1c(-c2ccccc2)[nH]c2ccccc12 | 55 | Agonist | 
6 | CC(CNC(=O)C1CCC1)c1c(-c2ccccc2)n(C)c2ccccc12 (stereo not given) | 222 |  | Response (Xenopus laevis [4]): Antagonist
7 | O=C(NCCc1c(-c2ccccc2)[nH]c2ccccc12)C1CCCC1 | 633 |  | Response (Xenopus laevis [1]): Antagonist
8 | CCCC(=O)NCCc1c(-c2ccccc2)[nH]c2ccc(OC)cc12 | 0.0558 |  | 
9 | O=C(NCCc1c(-c2ccccc2)[nH]c2ccccc12)C1CC1 | 213 |  | Response (Xenopus laevis [1]): Antagonist
10 | COc1ccc2[nH]c(-c3ccccc3)c(CCNC(=O)CCc3ccccc3)c2c1 | 263 | Agonist | 
11 | COCC(CNC(C)=O)c1c(-c2ccccc2)n(C)c2ccccc12 (stereo not given) |  |  | Ki (Melatonin receptor [5]): 350 nM; Response (Xenopus laevis [4]): Antagonist
12 | CCCC(=O)NCCc1c(-c2ccccc2)[nH]c2ccccc12 | 112 | Agonist | 
13 | CCC(=O)NCCc1c(-c2ccccc2)[nH]c2ccc(OC)cc12 | 0.0466 |  | Response (Xenopus laevis [6]): Agonist
14 | Cn1c(-c2ccccc2)c(CCNC(=O)C2CCC2)c2ccccc21 | 726 |  | Response (Xenopus laevis [4]): Antagonist
15 | O=C(NCCc1c(-c2ccccc2)[nH]c2ccccc12)C12C[C@H]3C[C@@H](C1)C[C@@H](C2)C3 | 1100 |  | Response (Xenopus laevis [7]): inactive
16 | O=C(NCCc1c(-c2ccccc2)[nH]c2ccccc12)C1CCCCC1 | 1550 |  | Response (Xenopus laevis [1]): Antagonist

Row | SMILES | Ki (Melatonin receptor [2]) [nM] | Response (Xenopus laevis [3]) | further results
17 | O=C(CCc1ccccc1)NCCc1c(-c2ccccc2)[nH]c2ccccc12 | 7000 |  | Response (Xenopus laevis [7]): inactive
18 | COCC(CNC(=O)C1CCC1)c1c(-c2ccccc2)n(C)c2ccccc12 (stereo not given) | 659 |  | Response (Xenopus laevis [4]): Antagonist
19 | COc1ccc2[nH]c(-c3ccccc3)c(CCNC(=O)C(F)(F)F)c2c1 | 0.019 |  | 
20 | COc1ccc2[nH]c(-c3ccccc3)c(CCNC(=O)C3CCCCC3)c2c1 | 216 | Agonist | 
21 | COc1ccc2[nH]cc(CCNC(C)=O)c2c1 |  |  | Response (Xenopus laevis [6]): Agonist
22 | COc1ccc2[nH]c(-c3ccccc3)c(CCNC(=O)C3CCC3)c2c1 | 2.7 | Agonist | 
23 | CC(=O)NCCc1c(-c2ccccc2)[nH]c2ccccc12 | 100 | Agonist | 
24 | CC(=O)NCC(C)c1c(-c2ccccc2)n(C)c2ccccc12 (stereo not given) | 5.9 |  | Response (Xenopus laevis [8]): Agonist
25 | CC(=O)NCCc1c(-c2ccccc2)n(C)c2ccccc12 | 63 | Agonist | 
26 | CC(Br)C(=O)NCCc1c(-c2ccccc2)[nH]c2ccccc12 (stereo not given) | 1900 |  | Response (Xenopus laevis [9]): inactive
27 | COc1ccc2[nH]c(-c3ccccc3)c(CCNC(=O)C3CCCC3)c2c1 | 32.8 | Agonist | 
28 | CCC(=O)NCCc1c(-c2ccccc2)[nH]c2ccccc12 | 70 | Agonist | 
29 | COc1ccc2[nH]c(-c3ccccc3)c(CCNC(C)=O)c2c1 | 0.0596 |  | Response (Xenopus laevis [6]): Agonist
30 | CCn1c(-c2ccccc2)c(CCNC(C)=O)c2ccccc21 | 154 |  | Response (Xenopus laevis [10]): Agonist
31 | O=C(NCCc1c(-c2ccccc2)[nH]c2ccccc12)C(F)(F)C(F)(F)F | 6500 |  | Response (Xenopus laevis [11]): inactive
32 | [N-]=[N+]=NCC(=O)NCCc1c(-c2ccccc2)[nH]c2ccccc12 | 410 | Agonist | 
